In ChEMBL document CHEMBL3259523, “Triazolo[4,5-d]pyrimidine Derivatives as Inhibitors of GCN2” (ACS Med Chem Lett, 2014):

Tests used:
[1] = target: T1, eIF-2-alpha kinase GCN2 (Homo sapiens, UniProt Q9P2K8); experiment: Inhibition of GCN2 (unknown origin) using GFP-elF2a as substrate preincubated with substrate for 20 mins measured after 90 mins by Lanthascreen assay
[2] = target: T1, eIF-2-alpha kinase GCN2; experiment: Inhibition of GCN2-mediated elF2alpha phosphorylation in human U2OS cells after 2 hrs by immunocytochemistry; type: cell-based

T1 sequence (Q9P2K8 whole entry): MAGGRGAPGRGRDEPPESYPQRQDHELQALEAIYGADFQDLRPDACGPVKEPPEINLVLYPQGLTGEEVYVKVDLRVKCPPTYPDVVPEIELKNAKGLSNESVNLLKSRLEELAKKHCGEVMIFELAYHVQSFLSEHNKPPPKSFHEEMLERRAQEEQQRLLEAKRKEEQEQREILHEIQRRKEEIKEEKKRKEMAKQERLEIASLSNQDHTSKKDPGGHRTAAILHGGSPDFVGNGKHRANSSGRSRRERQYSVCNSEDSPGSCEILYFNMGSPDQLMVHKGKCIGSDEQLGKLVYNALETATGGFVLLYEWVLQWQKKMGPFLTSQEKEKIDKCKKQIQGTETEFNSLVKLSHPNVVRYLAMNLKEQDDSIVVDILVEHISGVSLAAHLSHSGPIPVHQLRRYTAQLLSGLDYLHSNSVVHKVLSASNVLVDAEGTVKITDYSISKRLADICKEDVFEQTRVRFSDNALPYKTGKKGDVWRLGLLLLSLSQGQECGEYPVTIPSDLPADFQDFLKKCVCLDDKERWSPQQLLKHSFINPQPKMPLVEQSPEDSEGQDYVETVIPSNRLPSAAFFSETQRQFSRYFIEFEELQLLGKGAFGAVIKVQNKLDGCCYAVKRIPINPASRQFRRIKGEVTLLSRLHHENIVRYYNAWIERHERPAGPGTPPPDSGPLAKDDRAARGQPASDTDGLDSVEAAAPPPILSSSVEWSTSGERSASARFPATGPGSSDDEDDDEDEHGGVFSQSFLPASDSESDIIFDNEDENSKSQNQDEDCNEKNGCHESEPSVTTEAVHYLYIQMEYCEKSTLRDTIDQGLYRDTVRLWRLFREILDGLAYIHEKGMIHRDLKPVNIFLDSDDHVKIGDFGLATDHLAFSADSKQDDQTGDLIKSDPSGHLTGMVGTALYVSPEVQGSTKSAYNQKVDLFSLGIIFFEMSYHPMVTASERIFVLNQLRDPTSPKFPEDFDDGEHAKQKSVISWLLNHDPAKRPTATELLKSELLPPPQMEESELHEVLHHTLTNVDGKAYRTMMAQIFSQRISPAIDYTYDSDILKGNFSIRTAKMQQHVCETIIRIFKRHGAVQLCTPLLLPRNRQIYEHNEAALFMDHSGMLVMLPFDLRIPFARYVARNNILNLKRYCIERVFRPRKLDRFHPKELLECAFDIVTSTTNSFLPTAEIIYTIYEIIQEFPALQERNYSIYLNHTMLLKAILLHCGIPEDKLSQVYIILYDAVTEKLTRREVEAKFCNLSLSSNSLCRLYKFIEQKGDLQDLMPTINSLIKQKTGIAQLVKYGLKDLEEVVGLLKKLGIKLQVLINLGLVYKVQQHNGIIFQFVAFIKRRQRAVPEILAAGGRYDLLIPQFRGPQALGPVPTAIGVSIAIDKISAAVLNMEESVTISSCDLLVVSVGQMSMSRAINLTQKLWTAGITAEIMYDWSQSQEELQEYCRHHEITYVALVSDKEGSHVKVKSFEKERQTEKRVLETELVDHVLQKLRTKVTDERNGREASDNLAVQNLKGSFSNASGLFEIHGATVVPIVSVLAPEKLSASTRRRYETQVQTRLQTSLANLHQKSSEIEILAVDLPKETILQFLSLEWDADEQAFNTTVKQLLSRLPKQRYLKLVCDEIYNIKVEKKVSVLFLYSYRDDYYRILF

Row | Compound | IC50 [1] | IC50 [2]
1 | c1cc2cn[nH]c2cc1-n1nnc2nc(Nc3ccn(C4CCOCC4)n3)ncc21 | < 300 nM | < 300 nM
2 | O[C@H]1CC[C@H](n2ccc(Nc3ncc4c(nnn4-c4ccc(Cl)c(F)c4)n3)n2)CC1 | < 300 nM | < 300 nM
3 | CCOc1ccc(-n2nnc3nc(Nc4ccn(CCCC5CCNCC5)n4)ncc32)cc1 | < 300 nM | < 300 nM
4 | CCn1ccc(Nc2ncc3c(nnn3-c3ccc(C(C)(C)OCCO)cc3)n2)n1 | < 300 nM | 300 nM
